Test results taken from ChEMBL document CHEMBL3885861, “Open TG-GATES”.

Species on record: Rattus norvegicus
Assay: Open TG-GATES - Regimen: Single
Type: toxicity, organism-based, Sprague-Dawley
Set-up: regimen Single, gender Male, age 6 weeks
Conditions: in vivo, iv, 0 mg/kg, route intravenous injection, dose level Control; for Bas / Eos / Fbg / Ht / Lym / MCH / MCHC / MCV / Mono / PT / Plat / RBC / Ret / Neu: tissue Blood; for KIDNEY_L / KIDNEY_R / KIDNEY_TOTAL: tissue Kidney; for LIVER: tissue Liver

COc1cccc2c1C(=O)c1c(O)c3c(c(O)c1C2=O)C[C@@](O)(C(=O)CO)C[C@@H]3O[C@H]1C[C@H](N)[C@H](O)[C@H](C)O1 [DOXORUBICIN]
TERMINAL_BW (3 h): 210.4 g
Bas (3 h): 0%
Eos (3 h): 0.8%
Fbg (3 h): 277.8 mg/dL
Ht (3 h): 39.4%
Lym (3 h): 84.4%
MCH (3 h): 22 pg
MCHC (3 h): 34.9%
MCV (3 h): 63.1 fL
Mono (3 h): 2.6%
PT (3 h): 16.3 s
Plat (3 h): 122.6 x10_4/uL
RBC (3 h): 625 x10_4/ul
Ret (3 h): 6.3%
KIDNEY_L (3 h): 0.9 g
KIDNEY_R (3 h): 0.9 g
KIDNEY_TOTAL (3 h): 1.8 g
LIVER (3 h): 9.4 g
ALP (3 h, tissue Plasma): 1425.2 IU/L
ALT (3 h, tissue Plasma): 43.6 IU/L
AST (3 h, tissue Plasma): 77 IU/L
CRE (3 h, tissue Plasma): 0.2 mg/dL
DBIL (3 h, tissue Plasma): 0 mg/dL
GLC (3 h, tissue Plasma): 181.8 mg/dL
K (3 h, tissue Plasma): 4.5 meq/L
LDH (3 h, tissue Plasma): 185.6 IU/L
Na (3 h, tissue Plasma): 142.2 meq/L
RALB (3 h, tissue Plasma): 3 g/dL
TBIL (3 h, tissue Plasma): 0.008 mg/dL
TC (3 h, tissue Plasma): 77.6 mg/dL
TG (3 h, tissue Plasma): 87.2 mg/dL
TP (3 h, tissue Plasma): 5.2 g/dL
gamma-GTP (3 h, tissue Plasma): 1.2 IU/L
TERMINAL_BW (6 h): 211.5 g
Bas (6 h): 0%
Eos (6 h): 0.8%
Fbg (6 h): 292.4 mg/dL
Ht (6 h): 38.3%
Lym (6 h): 76%
MCH (6 h): 21.5 pg
MCHC (6 h): 34.4%
MCV (6 h): 62.4 fL
Mono (6 h): 2.8%
Neu (6 h): 19.2%
PT (6 h): 16.3 s
Plat (6 h): 127.3 x10_4/uL
RBC (6 h): 614.6 x10_4/ul
Ret (6 h): 6.9%
KIDNEY_L (6 h): 0.9 g
KIDNEY_R (6 h): 0.9 g
KIDNEY_TOTAL (6 h): 1.8 g
LIVER (6 h): 8.9 g
ALP (6 h, tissue Plasma): 1252 IU/L
ALT (6 h, tissue Plasma): 46.6 IU/L
AST (6 h, tissue Plasma): 90.2 IU/L
CRE (6 h, tissue Plasma): 0.2 mg/dL
DBIL (6 h, tissue Plasma): 0.004 mg/dL
GLC (6 h, tissue Plasma): 172.2 mg/dL
K (6 h, tissue Plasma): 4.3 meq/L
Na (6 h, tissue Plasma): 140.6 meq/L
RALB (6 h, tissue Plasma): 2.9 g/dL
TBIL (6 h, tissue Plasma): 0.026 mg/dL
TC (6 h, tissue Plasma): 71.8 mg/dL
TG (6 h, tissue Plasma): 63 mg/dL
TP (6 h, tissue Plasma): 5.1 g/dL
gamma-GTP (6 h, tissue Plasma): 1.6 IU/L
TERMINAL_BW (9 h): 208 g
Bas (9 h): 0%
Eos (9 h): 0.6%
Fbg (9 h): 298.2 mg/dL
Ht (9 h): 38.9%
Lym (9 h): 77.8%
MCH (9 h): 21.6 pg
MCHC (9 h): 34.2%
MCV (9 h): 63.2 fL
Mono (9 h): 2.8%
PT (9 h): 16.4 s
Plat (9 h): 116.3 x10_4/uL
RBC (9 h): 615.4 x10_4/ul
Ret (9 h): 6.5%
KIDNEY_L (9 h): 0.9 g
KIDNEY_R (9 h): 1 g
KIDNEY_TOTAL (9 h): 1.9 g
LIVER (9 h): 8.6 g
ALP (9 h, tissue Plasma): 1422.6 IU/L
ALT (9 h, tissue Plasma): 39.8 IU/L
AST (9 h, tissue Plasma): 77.6 IU/L
CRE (9 h, tissue Plasma): 0.2 mg/dL
DBIL (9 h, tissue Plasma): 0 mg/dL
GLC (9 h, tissue Plasma): 201.8 mg/dL
K (9 h, tissue Plasma): 4.3 meq/L
Na (9 h, tissue Plasma): 140.2 meq/L
RALB (9 h, tissue Plasma): 2.9 g/dL
TBIL (9 h, tissue Plasma): 0.01 mg/dL
TC (9 h, tissue Plasma): 63 mg/dL
TG (9 h, tissue Plasma): 65.6 mg/dL
TP (9 h, tissue Plasma): 5.3 g/dL
gamma-GTP (9 h, tissue Plasma): 1.4 IU/L
TERMINAL_BW (24 h): 223.8 g
Bas (24 h): 0%
Eos (24 h): 1%
Fbg (24 h): 298 mg/dL
Ht (24 h): 37.5%
Lym (24 h): 77.6%
MCH (24 h): 22.4 pg
MCHC (24 h): 36%
MCV (24 h): 62.2 fL
Mono (24 h): 4%
Neu (24 h): 16.4%
PT (24 h): 16.4 s
Plat (24 h): 117.3 x10_4/uL
RBC (24 h): 602.6 x10_4/ul
Ret (24 h): 7%
KIDNEY_L (24 h): 0.9 g
KIDNEY_R (24 h): 1 g
KIDNEY_TOTAL (24 h): 1.9 g
ALP (24 h, tissue Plasma): 1402 IU/L
ALT (24 h, tissue Plasma): 41 IU/L
AST (24 h, tissue Plasma): 68 IU/L
CRE (24 h, tissue Plasma): 0.2 mg/dL
DBIL (24 h, tissue Plasma): 0.002 mg/dL
GLC (24 h, tissue Plasma): 191.2 mg/dL
K (24 h, tissue Plasma): 4.5 meq/L
Na (24 h, tissue Plasma): 141.6 meq/L
RALB (24 h, tissue Plasma): 3.1 g/dL
TBIL (24 h, tissue Plasma): 0.014 mg/dL
TC (24 h, tissue Plasma): 77.6 mg/dL
TG (24 h, tissue Plasma): 113 mg/dL
TP (24 h, tissue Plasma): 5.5 g/dL
gamma-GTP (24 h, tissue Plasma): 1.4 IU/L
